Results taken from ChEMBL document CHEMBL5360653, “Marine Alkaloid Lepadins E and H Induce Ferroptosis for Cancer Chemotherapy” (J Med Chem, 2023).
Activity calls are given as the source filed them. The rule behind the calls is not given here.

Legend:
[1] = tested on: HeLa; experiment: Induction of apoptosis in human HeLa cells assessed as late apoptotic cells incubated at 4 uM for 24 hrs measured by annexin V-PI staining based FITC analysis (reference value: 1.54%); assay type: functional
[2] = tested on: HeLa; experiment: Induction of apoptosis in human HeLa cells assessed as necrotic cells incubated at 4 uM for 24 hrs measured by annexin V-PI staining based FITC analysis (reference value: 0.58%); assay type: functional
[3] = tested on: HeLa; experiment: Induction of apoptosis in human HeLa cells assessed as early apoptotic cells incubated at 6 uM for 24 hrs measured by annexin V-PI staining based FITC analysis (reference value: 3.94%); assay type: functional
[4] = tested on: HeLa; experiment: Induction of apoptosis in human HeLa cells assessed as late apoptotic cells incubated at 6 uM for 24 hrs measured by annexin V-PI staining based FITC analysis (reference value: 1.54%); assay type: functional
[5] = tested on: HeLa; experiment: Induction of apoptosis in human HeLa cells assessed as necrotic cells incubated at 6 uM for 24 hrs measured by annexin V-PI staining based FITC analysis (reference value: 0.58%); assay type: functional
[6] = tested on: HeLa; experiment: Induction of apoptosis in human HeLa cells assessed as late apoptotic cells incubated at 8 uM for 24 hrs measured by annexin V-PI staining based FITC analysis (reference value: 1.54%); assay type: functional
[7] = tested on: HeLa; experiment: Induction of apoptosis in human HeLa cells assessed as late apoptotic cells incubated at 10 uM for 24 hrs measured by annexin V-PI staining based FITC analysis (reference value: 1.54%); assay type: functional
[8] = tested on: HeLa; experiment: Induction of apoptosis in human HeLa cells assessed as viable cells incubated at 10 uM for 24 hrs measured by annexin V-PI staining based FITC analysis (reference value: 91.6%); assay type: functional; conditions: read-out: Activity
[9] = tested on: HeLa; experiment: Induction of apoptosis in human HeLa cells assessed as necrotic cells incubated at 10 uM for 24 hrs measured by annexin V-PI staining based FITC analysis (reference value: 1.6%); assay type: functional
[10] = tested on: HeLa; experiment: Induction of apoptosis in human HeLa cells assessed as viable cells preincubated with PFTalpha followed by compound addition at 10 uM for 24 hrs measured by annexin V-PI staining based FITC analysis (reference value: 91.6%); assay type: functional; conditions: read-out: Activity
[11] = tested on: HeLa; experiment: Induction of ROS generation in human HeLa cells assessed as increase in ROS level at 10 uM incubated for 0.5 hrs (reference value: 37.8%); assay type: functional
[12] = tested on: HeLa; experiment: Induction of ROS generation in human HeLa cells assessed as increase in ROS level at 10 uM incubated for 1 hrs (reference value: 37.8%); assay type: functional
[13] = tested on: HeLa; experiment: Induction of ROS generation in human HeLa cells assessed as increase in ROS level at 20 uM incubated for 0.5 hrs (reference value: 37.8%); assay type: functional
[14] = tested on: HeLa; experiment: Induction of ROS generation in human HeLa cells assessed as increase in ROS level at 20 uM incubated for 1 hrs (reference value: 37.8%); assay type: functional
[15] = tested on: HeLa; experiment: Induction of apoptosis in human HeLa cells assessed as early apoptotic cells incubated at 4 uM for 24 hrs measured by annexin V-PI staining based FITC analysis (reference value: 3.59%); assay type: functional
[16] = tested on: HeLa; experiment: Induction of apoptosis in human HeLa cells assessed as necrotic cells incubated at 6 uM for 24 hrs measured by annexin V-PI staining based FITC analysis (reference value: 0.70%); assay type: functional
[17] = tested on: HeLa; experiment: Induction of apoptosis in human HeLa cells assessed as early apoptotic cells incubated at 8 uM for 24 hrs measured by annexin V-PI staining based FITC analysis (reference value: 3.59%); assay type: functional
[18] = tested on: HeLa; experiment: Induction of apoptosis in human HeLa cells assessed as late apoptotic cells incubated at 8 uM for 24 hrs measured by annexin V-PI staining based FITC analysis (reference value: 1.81%); assay type: functional
[19] = tested on: HeLa; experiment: Induction of apoptosis in human HeLa cells assessed as necrotic cells incubated at 10 uM for 24 hrs measured by annexin V-PI staining based FITC analysis (reference value: 0.70%); assay type: functional
[20] = tested on: HeLa; experiment: Induction of apoptosis in human HeLa cells assessed as necrotic cells incubated at 10 uM for 24 hrs measured by annexin V-PI staining based FITC analysis (reference value: 0.79%); assay type: functional
[21] = tested on: HeLa; experiment: Induction of ROS generation in human HeLa cells assessed as increase in ROS level at 6 to 10 uM; assay type: functional, cell-based; conditions: dose 6-10 µM
[22] = tested on: HeLa; experiment: Induction of ROS generation in human HeLa cells assessed as increase in ROS level at 10 uM incubated for 1 hrs (reference value: 39.6%); assay type: functional
[23] = tested on: HeLa; experiment: Induction of ROS generation in human HeLa cells assessed as increase in ROS level at 20 uM incubated for 0.5 hrs (reference value: 39.6%); assay type: functional
[24] = tested on: HeLa; experiment: Induction of ferroptosis in human HeLa cells assessed as downregulation of SLC7A11 level measured at 4 to 10 uM for 24 hrs by Western blotting analysis; assay type: functional, cell-based; conditions: dose 4-10 µM
[25] = tested on: HeLa; experiment: Induction of ferroptosis in human HeLa cells assessed as increase of ACSL4 level measured at 4 to 10 uM for 24 hrs by Western blotting analysis; assay type: functional, cell-based; conditions: dose 4-10 µM
[26] = tested on: B16-F10; experiment: Induction of ferroptosis in mouse B16-F10 cells assessed as cell viability in presence of DFO at 10 uM; assay type: functional, cell-based
[27] = tested on: B16-F10; experiment: Induction of ferroptosis in mouse B16-F10 cells assessed as cell viability in presence of liproxstatin-1 at 10 uM; assay type: functional, cell-based
[28] = tested on: B16-F10; experiment: Antitumor activity against mouse B16-F10 cells allografted in immunocompetent C57BL/6J mouse assessed as reduction of tumor growth administered at 30 mg/kg, ip daily for 14 days (reference value: 1500 mm^3); assay type: functional; conditions: time 14 day
[29] = Toxicity in immunocompetent C57BL/6J mouse allografted with B16-F10 cells assessed as tissue damage in heart administered at 30 mg/kg, ip daily for 14 days by hematoxylin and eosin staining analysis; assay type: organism-based; conditions: in vivo, 336 h, time 14 day
[30] = Toxicity in immunocompetent C57BL/6J mouse allografted with B16-F10 cells assessed as tissue damage in kidney administered at 30 mg/kg, ip daily for 14 days by hematoxylin and eosin staining analysis; assay type: organism-based; conditions: in vivo, 336 h, time 14 day
[31] = Toxicity in immunocompetent C57BL/6J mouse allografted with B16-F10 cells assessed as tissue damage in lungs administered at 30 mg/kg, ip daily for 14 days by hematoxylin and eosin staining analysis; assay type: organism-based; conditions: in vivo, 336 h, time 14 day
[32] = Toxicity in immunocompetent C57BL/6J mouse allografted with B16-F10 cells assessed as tissue damage in liver administered at 30 mg/kg, ip daily for 14 days by hematoxylin and eosin staining analysis; assay type: organism-based; conditions: in vivo, 336 h, time 14 day

CCCCC/C=C/C(=O)O[C@@H]1C[C@H]2[C@@H](CCCC[C@H](O)CCC)CCC[C@H]2N[C@H]1C
Activity [1]: 2.73%
Activity [2]: 0.53%
Activity [3]: 30.6%
Activity [4]: 3.62%
Activity [5]: 0.85%
Activity [6]: 23.7%
Activity [7]: 27.3%
viability at 10 µM [8]: 28%
Activity [9]: 5.06%
viability at 10 µM [10]: 36.4%
Activity [11]: 55.1%
Activity [12]: 62.3%
Activity [13]: 80.6%
Activity [14]: 86.9%

CCC/C=C/C=C/C(=O)O[C@@H]1C[C@H]2[C@@H](CCCC[C@H](O)CCC)CCC[C@H]2N[C@H]1C
Activity [15]: 4.56%
Activity [16]: 0.94%
Activity [17]: 21.1%
Activity [18]: 2.28%
Activity [19]: 2.13%
Activity [20]: 2.34%
Activity [21]: Active
Activity [22]: 81.5%
Activity [23]: 84.4%
Activity [24]: Active
Activity [25]: Active
Activity [26]: Active
Activity [27]: Active
Activity [28]: <500 mm3
Activity [29]: Non-Toxic
Activity [30]: Non-Toxic
Activity [31]: Non-Toxic
Activity [32]: Non-Toxic
